Results reported in the NIST ThermoML archive (doi:10.1016/j.tca.2005.04.030).

Experiments:
[1] = xn = mol fraction of the nth substance listed; settings: 298 K, 101 kPa, Liquid; for speed of sound: Anton Paar DSA 48; for mass density: Vibrating tube method
[2] = refractive index (Na D-line) (dimensionless); xn = mol fraction of the nth substance listed; settings: 298 K, 101 kPa, Liquid, ATAGO RX-1000

CCCCOC(C)(C)C [butane, 1-(1,1-dimethylethoxy)-] + CCO
Settings	mass density, [1] [kg/m3]	refractive index, [2]	speed of sound, [1] [m/s]
x1 = 0.0493	782.41	1.36389	1141
x1 = 0.0589	781.92	1.36463	1139
x1 = 0.0797	780.9	1.36652	1139
x1 = 0.1006	779.92	1.36783	1136
x1 = 0.1555	777.57	1.37143	1133
x1 = 0.1947	776.05	1.37365	1132
x1 = 0.1978	775.98	1.37382	1132
x1 = 0.2528	773.99	1.3765	1129
x1 = 0.2923	772.71	1.37818	1127
x1 = 0.2967	772.6	1.37834	1128
x1 = 0.3512	770.96	1.38037	1125
x1 = 0.3966	769.83	1.38183	1124
x1 = 0.397	769.71	1.38186	1124
x1 = 0.4313	768.83	1.38287	1123
x1 = 0.4999	767.3	1.38462	1122
x1 = 0.5118	766.95	1.38494	1121
x1 = 0.559	765.94	1.38599	1120
x1 = 0.5953	765.3	1.38674	1119
x1 = 0.5964	765.18	1.38674	1119
x1 = 0.6627	763.92	1.38795	1118
x1 = 0.6853	763.6	1.38828	1120
x1 = 0.7044	763.16	1.38862	1118
x1 = 0.7441	762.45	1.3892	1117
x1 = 0.7814	761.8	1.3897	1117
x1 = 0.7853	761.72	1.38986	1118
x1 = 0.8493	760.58	1.3905	1116
x1 = 0.9072	759.5	1.39106	1115
x1 = 0.9404	758.85	1.39132	1115
